Common to all, as to experiment: relative viability (nuclei count vs DMSO), 5 days (fraction); higher = more cells survive
Compound in the assay “Crenolanib + Decitabine”: CC1(COc2ccc3c(c2)ncn3-c2ccc3cccc(N4CCC(N)CC4)c3n2)COC1 [Crenolanib] + Nc1ncn([C@H]2C[C@H](O)[C@@H](CO)O2)c(=O)n1 [Decitabine] (partner 2 µM)
In outline: (§1)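 Values are medians from duplicate plates. Each reflects relative viability, defined as the nuclei count of treated wells over that of vehicle wells. Lung cancer cell lines in 1536-well plates were pin-tool dosed one day after seeding with one drug alone or with a fixed anchor-drug dose plus five library-drug doses (not always all listed) in √10 steps, then fixed, stained and imaged at 4× after 5 days.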

Compound in the assay “Crenolanib + Alpelisib”: CC1(COc2ccc3c(c2)ncn3-c2ccc3cccc(N4CCC(N)CC4)c3n2)COC1 [Crenolanib] + Cc1nc(NC(=O)N2CCC[C@H]2C(N)=O)sc1-c1ccnc(C(C)(C)C(F)(F)F)c1 [Alpelisib] (partner 2 µM)
In outline: as §1

Compound in the assay “Tivantinib + Lapatinib”: O=C1NC(=O)[C@@H](c2cn3c4c(cccc24)CCC3)[C@@H]1c1c[nH]c2ccccc12 [Tivantinib] + CS(=O)(=O)CCNCc1ccc(-c2ccc3ncnc(Nc4ccc(OCc5cccc(F)c5)c(Cl)c4)c3c2)o1 [Lapatinib] (partner 2 µM)
The gist of the method:
as §1

Compound in the assay “Crenolanib + Vorinostat”: CC1(COc2ccc3c(c2)ncn3-c2ccc3cccc(N4CCC(N)CC4)c3n2)COC1 [Crenolanib] + O=C(CCCCCCC(=O)Nc1ccccc1)NO [Vorinostat] (partner 1 µM)
In outline: as §1

We go through 1 cell line from the supplement of paper PMC10307832.

Take UMC-11: the relative viability came out at 0.669 in the assay with Crenolanib + Decitabine (first compound 0.01 µM); 0.578 with Crenolanib + Decitabine (first compound 0.03162 µM); 0.627 with Crenolanib + Decitabine (first compound 0.1 µM); 0.588 in the assay with Crenolanib + Decitabine (first compound 0.3162 µM); 0.557 with Crenolanib + Decitabine (first compound 1 µM); 1.06 in the assay with Crenolanib + Alpelisib (first compound 0.01 µM). Moreover, the relative viability in the assay with Crenolanib + Alpelisib (first compound 0.03162 µM) was determined as 0.958; in the assay with Crenolanib + Alpelisib (first compound 0.1 µM) it was 0.956; with Crenolanib + Alpelisib (first compound 0.3162 µM) it was 1.14; with Crenolanib + Alpelisib (first compound 1 µM), 0.989; in the assay with Tivantinib + Lapatinib (first compound 0.01 µM), 1.03; with Tivantinib + Lapatinib (first compound 0.03162 µM) it was 0.673. Besides, the relative viability was 1.03 with Tivantinib + Lapatinib (first compound 0.1 µM); 1.08 with Tivantinib + Lapatinib (first compound 0.3162 µM); 0.383 in the assay with Crenolanib + Vorinostat (first compound 0.01 µM); 0.453 with Crenolanib + Vorinostat (first compound 0.03162 µM); 0.389 in the assay with Crenolanib + Vorinostat (first compound 0.1 µM); 0.363 in the assay with Crenolanib + Vorinostat (first compound 0.3162 µM). Also, the relative viability with Crenolanib + Vorinostat (first compound 1 µM) was 0.374.
